Measurements from US7279290B2, “ATM kinase compositions and methods” (St. Jude Children's Research Hospital, priority 2002, dated 2007).

Tests used:
[1] = system: Ser^1981 in ATM; test: Ser^1981 phosphorylation of ATM in primary fibroblasts after treatment with agents; format: cell-based, human; details: for Phosphorylation of ATM: over one and five hours after exposure
Experimental: Another aspect of the present invention provides a method of detecting DNA damage in a cell by identifying the activation state of ATM kinase.
293T cells, HeLa cells and 1070SK primary human foreskin fibroblasts (HFF) (>passage 20, ATCC) were cultured in Dulbecco's Modification of Eagle's Medium (DMEM) supplemented with 10% fetal bovine serum (FBS). GM00637 and GM09607 fibroblasts were grown in DMEM containing 15% FBS. GM00536 lymphoblast cells were grown in RPMI supplemented with 10% fetal calf serum. 293T cells were transfected using FUGENE™ (Roche, Indianapolis, Ind.) and HeLa cells, GM00637 and GM09607 with LIPOFECTAMINE™ (INVITROGEN™ Corp., Carlsbad, Calif.). Metabolic labeling was performed by pre-equilibrating cells in phosphate-free media for three hours prior to the addition of 0.5 mCi/ml ^32P orthophosphate (PerkinElmer Life Sciences Inc., Boston, Mass.) for 30 minutes. Inhibition of DNA synthesis and analysis of G2/M checkpoint after irradiation was assessed using well-known methods (e.g., Xu, et al. (2001) Mol. Cell. Biol. 21:3445-3450). Wortmannin was added to samples on ice 15 minutes prior to reactions and 5 μM manganese and 1 μg sonicated calf thymus DNA were present or absent. Proteins were crosslinked by incubating cells in formaldehyde/phosphate-buffered saline (PBS) for 10 minutes at room temperature. Formaldehyde was washed out using PBS containing 100 mM glycine and immunoprecipitation was then performed. Hypotonic swelling was performed for 1 hour in PBS containing 0.45% glucose (w/v) and 1% FBS with the NaCl concentration reduced to either 50 mM or 100 mM. HFF were incubated with chloroquine in DMEM containing 10% FBS for four hours. Prior to an eight hour incubation with Trichostatin A, HFF was grown for 24 hours in DMEM containing 0.1% FBS. […] For immunofluoresence experiments, HFF grown on glass slides were fixed in 50% methanol/50% acetone for two hours at −20° C. Cells were incubated with primary antibodies at 1/1000 (H2AXγ; Upstate, Charlottesville, Va.) and secondary antibodies at 1/500 (Cy3 anti-mouse and FITC anti-rabbit; Jackson ImmunoResearch Laboratories, Inc., West Grove, Pa.) in PBS, 10% FBS for one hour.
Mammalian cell extracts were prepared in buffer A. Cleared supernatants were immunoprecipitated with anti-FLAG® M2 sepharose or anti-ATM D1611 (Alligood, et al. (2000) Hybridoma 19:317-321) and protein A/G agarose. Beads were washed twice with buffer A and twice with RIPA buffer. Co-immunoprecipitation was performed in buffer B: 50 mM Tris (pH 7.5), 150 mM NaCl, 0.5% TWEEN® 20, 0.2% NP-40, 50 mM NaF, 1 mM AEBSF, and 1x protease inhibitor mixture (Roche, Indianapolis, Ind.).
Western blotting was performed with anti-FLAG® M5 (Sigma-Aldrich, St. Louis, Mo.), anti-ATM MAT3, anti-GST (Amersham Pharmacia Biotech, Uppsala, Sweden) or anti-6x-His (Sigma-Aldrich, St. Louis, Mo.).

[2] = system: ATM protein; test: ATM phosphorylation after chromatin-modifying treatments (immunoblot and immunofluorescence); format: cell-based, human
Source text: Since such a high fraction of cellular ATM becomes phosphorylated so rapidly in the presence of so few DNA strand breaks, it is unlikely that the ATM oligomers could require direct binding to DNA strand breaks for activation and autophosphorylation. Therefore, the introduction of DNA strand breaks may cause a change in the nucleus that activates ATM at a distance from the break itself. As DNA strand breaks introduced by ionizing irradiation rapidly alter topological constraints on DNA (Roti Roti and Wright (1987) Cytometry 8:461-467; Jaberaboansari, et al. (1988) Radiat. Res. 114:94-104; Malyapa, et al. (1996) Int. J. Radiat. Oncol. Biol. Phys. 35:963-973),alterations in some aspect of chromatin structure fit the criteria of being a rapid change and being able to act a distance in the nucleus. Chromatin and chromosome structures can be altered in the absence of DNA breaks by hypotonic conditions (Earnshaw, and Laemmli (1983) J. Cell Biol. 96:84-93; Jeppesen, et al. (1992) Chromosoma 101:322-332), exposure to chloroquine (Krajewski (1995) FEBS Letters 361:149-152; Jensen, et al. (1994) Cancer Res. 54:2959-2963; Snyder (2000) Environ. Mol. Mutagen. 35:13-21), or treatment with histone deaceylase inhibitors (Krajewski (1999) J. Biomol. Struct. Dynam. 16:1097-1106; Yoshida, et al. (1995) BioEssays 17:423-430; Kuo and Allis (1998) BioEssays 20:615-626). […]

[3] = system: HFF; test: Cell death of HFF during incubation; details: HFF incubated with chloroquine four hours
Experimental: 293T cells, HeLa cells and 1070SK primary human foreskin fibroblasts (HFF) (>passage 20, ATCC) were cultured in Dulbecco's Modification of Eagle's Medium (DMEM) supplemented with 10% fetal bovine serum (FBS). GM00637 and GM09607 fibroblasts were grown in DMEM containing 15% FBS. GM00536 lymphoblast cells were grown in RPMI supplemented with 10% fetal calf serum. 293T cells were transfected using FUGENE™ (Roche, Indianapolis, Ind.) and HeLa cells, GM00637 and GM09607 with LIPOFECTAMINE™ (INVITROGEN™ Corp., Carlsbad, Calif.). Metabolic labeling was performed by pre-equilibrating cells in phosphate-free media for three hours prior to the addition of 0.5 mCi/ml ^32P orthophosphate (PerkinElmer Life Sciences Inc., Boston, Mass.) for 30 minutes. Inhibition of DNA synthesis and analysis of G2/M checkpoint after irradiation was assessed using well-known methods (e.g., Xu, et al. (2001) Mol. Cell. Biol. 21:3445-3450). Wortmannin was added to samples on ice 15 minutes prior to reactions and 5 μM manganese and 1 μg sonicated calf thymus DNA were present or absent. Proteins were crosslinked by incubating cells in formaldehyde/phosphate-buffered saline (PBS) for 10 minutes at room temperature. Formaldehyde was washed out using PBS containing 100 mM glycine and immunoprecipitation was then performed. […]

[4] = system: HeLa cells; test: Radioprotection assay (colony formation after irradiation); format: cell-based; details: for Average Number of Colonies*: 2 μg/ml chloroquine one hour, washed one hour, 1000 cells plated
Experimental: HeLa cells were treated with 2 μg/ml of chloroquine for one hour, washed for one hour, and irradiated at 2 or 6 Gy. Subsequently, 1000 cells were plated and assessed for colony formation.

[5] = system: Ser^1981 of ATM; test: Ser^1981 phosphorylation following irradiation of human diploid fibroblasts; format: cell-based
Experimental: Autophosphorylation of Ser^1981 was determined using glutathione-S-transferase (GST) fusion proteins containing various lengths of ATM as substrates of the ATM kinase in in vitro kinase reactions. A polypeptide containing the appropriate serine residue at 1981 was an excellent in vitro substrate, whereas a Ser^1981→Ala mutant was not phosphorylated by ATM whether the read-out was incorporation of radioactive phosphate or binding by the α-Ser^1981-P antibody. […] This concentration of wortmannin inhibits both ATM and DNA-dependent protein kinase (DNA-PK), but not ataxia- and Rad3-related protein (ATR), in vivo (Sarkaria, et al. (1998) Cancer Res. 58:4375-4382). To exclude DNA-PK as a responsible kinase, phosphorylation of Ser^1981 was determined in a cell line lacking DNA-PK activity. The kinetics and levels of IR-induced phosphorylation of Ser^1981 were identical to those in a similar cell line containing DNA-PK activity.

[6] = one hour following exposure, 2 nM camptothecin, 17 nM etoposide or 0.1% H2O2

## OO [H2O2]
[1]; [6]
  Phosphorylation of Ser^1981 in ATM: detected

## COS(C)(=O)=O [MMS, methlymethanesulfonate]
[1]; five hours after treatment, compared with one hour
  Phosphorylation of Ser^1981 in ATM: more prominent phosphorylation

## CC(/C=C/C(=O)NO)=C\[C@@H](C)C(=O)c1ccc(N(C)C)cc1 [Trichostatin, Trichostatin A]
[2]
  phosphorylation of ATM protein: induced rapid and diffuse phosphorylation

## C[C@@]1(CO)[C@H](O)CC[C@@]2(C)[C@H]1CC[C@H]1C[C@@H]3C[C@@]12CC[C@]3(O)CO [aphidicolin]
[1]
  Phosphorylation of ATM: Little or no phosphorylation

## CC[C@@]1(O)C(=O)OCc2c1cc1n(c2=O)Cc2cc3ccccc3nc2-1 [camptothecin]
[1]; [6]
  Phosphorylation of Ser^1981 in ATM: detected

## CCN(CC)CCCC(C)Nc1ccnc2cc(Cl)ccc12 (stereo not shown) [chloroquine]
[2]
  phosphorylation of ATM protein: induced rapid and diffuse phosphorylation
[3]
  cell death: No cell death was observed
[4]; irradiated at 2 Gy
  Average Number of Colonies*: 580
[4]; irradiated at 6 Gy
  Average Number of Colonies*: 129
[4]; HeLa cells, chloroquine prior to irradiation
  increase in cell survival by treatment prior to irradiation: 30%

## NC(=O)NO [hydroxyurea]
[1]
  Phosphorylation of ATM: Little or no phosphorylation

## Cc1cn([C@H]2C[C@H](O)[C@@H](CO)O2)c(=O)[nH]c1=O [thymidine]
[1]
  Phosphorylation of ATM: Little or no phosphorylation

## COC[C@H]1OC(=O)c2coc3c2[C@@]1(C)C1=C(C3=O)[C@@H]2CCC(=O)[C@@]2(C)C[C@H]1OC(C)=O [wortmannin]
[5]
  concentration effectively inhibiting phosphorylation of Ser^1981: ≥ 20 µM
